Source: patent publication US11401516B2, “Channel modulators” (AUCKLAND UNISERVICES LIMITED, priority 2014, dated 2022)
Each block holds one compound with its values, some of them ahead of it.

Assays:
Connexin43 hemichannel = target: T1, Connexin43 hemichannel (Homo sapiens, UniProt P17302); assay: Whole-cell voltage clamp, Connexin43 transfected HeLa cells; format: cell-based; conditions: voltage steps; peptide5 100 μM; carbenoxolone and LaCl3 concentration not stated
T1 construct: expressed in transfected cells; host or cells: HeLa (connexin-deficient parent), Cx43IRESeGFP, puromycin selection
T1 sequence (P17302 2-382 limits assumed): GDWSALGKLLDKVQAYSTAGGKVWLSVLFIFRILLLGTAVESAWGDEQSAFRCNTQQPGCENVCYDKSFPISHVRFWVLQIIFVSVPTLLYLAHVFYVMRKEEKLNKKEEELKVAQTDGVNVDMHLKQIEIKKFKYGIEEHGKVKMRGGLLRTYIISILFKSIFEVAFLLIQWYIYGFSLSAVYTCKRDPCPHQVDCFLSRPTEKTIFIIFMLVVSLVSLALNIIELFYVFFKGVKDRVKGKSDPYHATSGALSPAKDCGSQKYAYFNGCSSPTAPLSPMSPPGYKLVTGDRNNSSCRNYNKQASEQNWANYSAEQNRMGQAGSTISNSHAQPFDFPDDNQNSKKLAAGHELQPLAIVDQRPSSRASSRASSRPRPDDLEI
Experimental: Whole-cell voltage clamp studies were conducted on connexin deficient HeLa cells, Connexin43 transfected HeLa cells and isolated human cerebral microvascular endothelial cells (hCMVEC).
HeLa cells were seeded at 0.045×10^6 cells/mL on 18 mm rat collagen I coated coverslips 16-24 hours before each experiment. Cx43IRESeGFP HeLa cells were cultured overnight in DMEM supplemented with 10% FCS and 1 μg/mL Puromycin at 37° C. at 95% O2 and 5% CO2. Control Cx-deficient cells were maintained in DMEM supplmented with 10% FCS. Coverslips were transferred to a chamber continuously perfused with modified Krebs-Ringer solution containing (in mM): 140 NaCl, 5.4 KCl, 1 MgCl2, 10 mM Hepes and pH adjusted to 7.4 at room temperature. The internal pipette solution contained (in mM): 130 KCl, 10 sodium aspartate, 0.26 CaCl2, 2 EGTA, 5 tetraethylammonium-Cl, 1 MgCl, 3 MgATP, and 5 Hepes at pH 7.2; and was kept on ice. The solutions are described in Contreras J E, et al., Cell Communication and Adhesion (2003), 10:245-249. To resolve single currents in whole-cell configuration, cells with low capacitance (<10 pF) and high resistance pipettes ([…]) with a seal resistance of (>5 GOhm) were selected for recording and analysis.

HUVEC cells = assay: Transfection uptake of FAM-labelled oligonucleotides (FACS); format: cell-based, Human; conditions: 200 nM
Experimental: HUVEC cells (C-003-5C, Invitrogen, primary Human endothelial cells) were used to test the transfection of chemically modified backbones of the Connexin 43 antisense compounds. Cells were transfected with Oligofectamine® using the manufacturer's recommended protocol for 4 hr and 12 hr in serum-free media. The antisense concentration was 200 nM in buffer. The antisense compounds used had unmodified (O) or fully modified (PTO) backbones, where the modified backbone had all thiophosphoriate linkages between the nucleotides. The unmodified sequence SEQ1-O would have the sequence […] NO: 23). The modified sequence SEQ1-PTO would have the sequence of: [NT] NO: 23), wherein the subscript “s” indicates the thiophosphoriate linkage between the two nucleotides. […] All sequences for the transfection study were labelled with FAM for fluorescence labelling. The transfected cells were analyzed by FACS (fluorescent-activated cell sorting), and confocal microscopy.

Connexin 43 RNA = assay: Connexin 43 knockdown by qPCR in HUVEC; format: cell-based, human; conditions: for Avg % KD qPCR: HUVEC, phosphorothioate backbone ASN; for Absolute Difference from SEQ1 (relative knockdown): all-thiophosphoriate linkages in the entire backbone; for dose response of Cxn43 knockdown, qPCR: 200-600 nM
Experimental: Next, the knockdown efficiency of Connexin 43 in HUVEC cells was measured by qPCR for an oligonucleotide series with the same sequence but with a different number of PTO-modifications on the oligonucleotide backbone. The sequences tested were SEQ1 and SEQ4, with none, 2, or all phosphorthioate linkages in the backbone. For the sequences with two phosphorthioate linkages in the backbone, the phosphorthioate linkages were between the last nucleotide linkages at the terminus of each side of the sequence. The sequences are Gs[…]sT (SEQ ID NO: 23) and As[…]sC (SEQ ID NO: 5) for SEQ1-2PTO and SEQ4-2PTO, respectively. […]
(§1) Cells were grown in 6-well culture plates for 24 hr and reached 50-70% confluence prior to antisense oligonucleotide treatments using the transfection agent Oligofectamine®. Cells were harvested for qPCR and Western blotting analysis between 4 and 24 hr after transfection.
qPCR was performed to determine the efficacy of antisense oligonucleotide in knockdown of the target RNA. Briefly, total RNA was extracted from the cells after transfection. The isolated RNA was DNAse-treated and reverse-transcribed into cDNA. The cDNA subsequently underwent qPCR thermal cycling. The Ct values (the number of cycles required for the fluorescent intensity to cross the set threshold) obtained from the qPCR were converted into relative abundance of RNA. The RNA level of the target was normalised to selected reference genes and compared between antisense oligonucleotide versus vehicle treatments.
(§2) The cell screening experiments were performed using HUVEC cells (human umbilical vein endothelial cells; Invitrogen), with two biological replicates in each experiment. The identifiers of “CODA” are SEQ1, and “LP2” are SEQ4.

Connexin 43 = Connexin 43 knockdown by Western blot in HUVEC; format: cell-based, human; conditions: phosphorothioate backbone ASN
Experimental: as §1
Western blotting was also performed to determine the efficacy of antisense oligonucleotide in knockdown of the target protein. Briefly, total proteins were extracted from the cells after transfection and the concentration was determined by performing bicinchoninic acid (BCA) assay. Subsequently, equal amounts of total protein were loaded for gel electrophoresis and blotted onto nitrocellulose membranes, which were then probed with a specific antibody against the target protein. Densitometry was used to quantify the band intensity of the target protein. Knockdown was quantified by comparing antisense oligonucleotide versus vehicle treatments.
as §2

[1] = cited from earlier work; for incidence of new geographic atrophy: treated monthly, average 23 injections over two years
[2] = Table 66, 4 hr post-transfection
[3] = Table 67, 4 hr post-transfection
[4] = unmodified sequences (no phosphorthioate linkages)

- Connexin43 hemichannel activity (Connexin43 hemichannel): virtually complete hemichannel block
Compound: [Cl][La]([Cl])[Cl] [LaCl3]

Compound: ACCCATGTTGCCTGGGCACC (chemistry not fully specified) [SEQ4-Q]
- % transfected, M2 (HUVEC cells; [2]): 64%
- % transfected, M3 (HUVEC cells; [2]): 34%
- % transfected, M4 (HUVEC cells; [2]): 1%
- % transfected, Total (HUVEC cells; [2]): 99%
- % transfected, M2 (HUVEC cells; [3]): 55%
- % transfected, M3 (HUVEC cells; [3]): 41%
- % transfected, M4 (HUVEC cells; [3]): 2%
- % transfected, Total (HUVEC cells; [3]): 99%

Compound: AGGCTGTGCATGGGAGTTAG (chemistry not given here) [SEQ7/1233]
- Avg % KD qPCR (Connexin 43 RNA): 82%
- Absolute Difference from SEQ1 (relative knockdown) (Connexin 43 RNA): 17
- Avg % KD WB (Connexin 43): 75%

Compound: ATATGATCTGCAGGACCCAG (chemistry not given here) [SEQ9/50506]
- Avg % KD qPCR (Connexin 43 RNA): 79%
- Absolute Difference from SEQ1 (relative knockdown) (Connexin 43 RNA): 14
- Avg % KD WB (Connexin 43): 73%

Compound: AsCsCsCsAsTsGsTsTsGsCsCsTsGsGsGsCsAsCsC (ACCCATGTTGCCTGGGCACC; chemistry not fully specified) [SEQ4-PTO]
- % transfected, M2 (HUVEC cells; [2]): 9%
- % transfected, M3 (HUVEC cells; [2]): 44%
- % transfected, M4 (HUVEC cells; [2]): 48%
- % transfected, Total (HUVEC cells; [2]): 100%
- % transfected, M2 (HUVEC cells; [3]): 9%
- % transfected, M3 (HUVEC cells; [3]): 44%
- % transfected, M4 (HUVEC cells; [3]): 47%
- % transfected, Total (HUVEC cells; [3]): 99%

Compound: Avastin: VEGF antagonist antibody
- incidence of new geographic atrophy [1]: 19.5%

Compound: CAGAAGCGCACATGAGAGAT (chemistry not given here) [SEQ8/47001]
- Avg % KD qPCR (Connexin 43 RNA): 81%
- Absolute Difference from SEQ1 (relative knockdown) (Connexin 43 RNA): 15
- Avg % KD WB (Connexin 43): 75%

Compound: CCAGGCTGACTCAACCGCTG (chemistry not given here) [SEQ4/37501]
- Avg % KD qPCR (Connexin 43 RNA): 87%
- Absolute Difference from SEQ1 (relative knockdown) (Connexin 43 RNA): 22
- dose response of Cxn43 knockdown, qPCR (Connexin 43 RNA; [4]): exhibited a dose response
- Avg % KD WB (Connexin 43): 82%

Compound: CGCTGGTCCACAATGGCTAG (chemistry not given here) [SEQ6/133705]
- Avg % KD qPCR (Connexin 43 RNA): 83%
- Absolute Difference from SEQ1 (relative knockdown) (Connexin 43 RNA): 18
- dose response of Cxn43 knockdown, qPCR (Connexin 43 RNA; [4]): exhibited a dose response
- Avg % KD WB (Connexin 43): 75%

Compound: GAAGCGCACATGAGAGATTG (chemistry not given here) [SEQ11]
- Absolute Difference from SEQ1 (relative knockdown) (Connexin 43 RNA): 20

Compound: GCTGGCTCTGCTTGAAGGTC (chemistry not given here) [SEQ 5/133705]
- Avg % KD qPCR (Connexin 43 RNA): 84%
- Absolute Difference from SEQ1 (relative knockdown) (Connexin 43 RNA): 19
- Avg % KD WB (Connexin 43): 75%

Compound: GTAATTGCGGCAAGAAGAATTGTTTCTGT (DNA, phosphodiester; FAM fluorescent label attached, position not given here) [SEQ1-O]
- % transfected, M2 (HUVEC cells; [2]): 56%
- % transfected, M3 (HUVEC cells; [2]): 42%
- % transfected, M4 (HUVEC cells; [2]): 2%
- % transfected, Total (HUVEC cells; [2]): 99%
- % transfected, M2 (HUVEC cells; [3]): 56%
- % transfected, M3 (HUVEC cells; [3]): 40%
- % transfected, M4 (HUVEC cells; [3]): 2%
- % transfected, Total (HUVEC cells; [3]): 98%

Compound: GTAATTGCGGCAAGAAGAATTGTTTCTGTC (chemistry not given here) [SEQ1]
- knockdown effect on Cxn43, qPCR (Connexin 43 RNA; unmodified sequences (no phosphorthioate linkages), 4 hr, all concentrations (200-600 nM)): ≤ 10%

Compound: GsTsAsAsTsTsGsCsGsGsCsAsAsGsAsAsGsAsAsTsTsGsTsTsTsCsTsGsT (GTAATTGCGGCAAGAAGAATTGTTTCTGT; chemistry not fully specified) [SEQ1-PTO]
- % transfected, M2 (HUVEC cells; [2]): 26%
- % transfected, M3 (HUVEC cells; [2]): 63%
- % transfected, M4 (HUVEC cells; [2]): 11%
- % transfected, Total (HUVEC cells; [2]): 100%
- % transfected, M2 (HUVEC cells; [3]): 15%
- % transfected, M3 (HUVEC cells; [3]): 49%
- % transfected, M4 (HUVEC cells; [3]): 35%
- % transfected, Total (HUVEC cells; [3]): 100%

Compound: Lucentis: VEGF antagonist antibody
- new geographic atrophy ([1]; treated as needed): 16%
- incidence of new geographic atrophy [1]: 29.4%

Compound: TCTCCCCAGGCTGACTCAAC (chemistry not given here) [SEQ10/37503]
- Avg % KD qPCR (Connexin 43 RNA): 77%
- Absolute Difference from SEQ1 (relative knockdown) (Connexin 43 RNA): 12
- Avg % KD WB (Connexin 43): 75%
